{"source": "patent US6355799B1", "about": "“Substituted benzene compounds, process for their preparation, and herbicidal and defoliant compositions containing them” (ISK Americas Incorporated, priority 1997, dated 2002)", "type_in_all_cases": "in vivo", "key": {"[1]": {"system": "field corn (Zea mays L., var. Dekalb 535, CORN)", "assay": "Pre-emerge test, crop safety", "settings": "rated 14 days after application, 0 = no damage, 100 = complete death", "procedure,_shortened": "(§1)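 Visual ratings on a 0-100 scale (0 no damage, 100 all plants dead) were taken at 14 days after treatment. Rates of 15-1000 g ai/ha in acetone, 187 l/ha, were sprayed onto soil one day after planting (pre-emerge) or onto 2-3 leaf plants with 0.25% v/v surfactant (post-emerge).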"}, "[2]": {"system": "upland rice (Oryza sp., var. Tebonnet, RICE)", "assay": "Pre-emerge test, crop safety", "settings": "rated 14 days after application, 0 = no damage, 100 = complete death", "procedure,_shortened": "as §1"}, "[3]": {"system": "sicklepod (Cassia obtusifolia, CASOB)", "assay": "Pre-emerge test, greenhouse herbicide activity screening", "settings": "rated 14 days after application, 0 = no damage, 100 = complete death", "procedure,_shortened": "(§2)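 Compounds in acetone were track-sprayed at 15-1000 g ai/ha (187 l/ha) on sandy loam pots: pre-emerge one day after seeding, post-emerge at 2-3 leaf stage with 0.25% v/v non-ionic surfactant. Phytotoxicity was rated 14 days later on a 0 (no damage) to 100 (complete death) scale.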"}, "[4]": {"system": "common ragweed (Ambrosia artemisizfolia L., AMBEL)", "assay": "Pre-emerge test, greenhouse herbicide activity screening", "settings": "rated 14 days after application, 0 = no damage, 100 = complete death", "procedure,_shortened": "as §2"}, "[5]": {"system": "green foxtail (Setaria viridis, SETVI)", "assay": "Pre-emerge test, greenhouse herbicide activity screening", "settings": "rated 14 days after application, 0 = no damage, 100 = complete death", "procedure,_shortened": "as §2"}, "[6]": {"system": "johnsongrass (Sorghum halepense, SORHA)", "assay": "Pre-emerge test, greenhouse herbicide activity screening", "settings": "rated 14 days after application, 0 = no damage, 100 = complete death", "procedure,_shortened": "as §2"}, "[7]": {"system": "ivyleaf morningglory (Ipomoea hederacea, IPOHE)", "assay": "Pre-emerge test, greenhouse herbicide activity screening", "settings": "rated 14 days after application, 0 = no damage, 100 = complete death", "procedure,_shortened": "as §2"}, "[8]": {"system": "large crabgrass (Digitaria sanguinalis, DIGSA)", "assay": "Pre-emerge test, greenhouse herbicide activity screening", "settings": "rated 14 days after application, 0 = no damage, 100 = complete death", "procedure,_shortened": "as §2"}, "[9]": {"system": "barnyardgrass (Echinochloa crus-galli, ECHCG)", "assay": "Pre-emerge test, greenhouse herbicide activity screening", "settings": "rated 14 days after application, 0 = no damage, 100 = complete death", "procedure,_shortened": "as §2"}, "[10]": {"system": "lambsquarters (Chenopodium album, CHEAL)", "assay": "Pre-emerge test, greenhouse herbicide activity screening", "settings": "rated 14 days after application, 0 = no damage, 100 = complete death", "procedure,_shortened": "as §2"}, "[11]": {"system": "velvetleaf (Abutilon theophrasti, ABUTH)", "assay": "Pre-emerge test, greenhouse herbicide activity screening", "settings": "rated 14 days after application, 0 = no damage, 100 = complete death", "procedure,_shortened": "as §2"}, "[12]": {"system": "redroot pigweed (Amaranthus retroflexus, AMARE)", "assay": "Pre-emerge test, greenhouse herbicide activity screening", "settings": "rated 14 days after application, 0 = no damage, 100 = complete death", "procedure,_shortened": "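Herbicidal damage is scored 0 (none) to 100 (complete plant death) two weeks after a simulated field spray. Rates span 15–1000 g ai/ha, delivered in acetone at 187 l/ha. For post-emergence treatments, plants have 2–3 leaves and the spray carries 0.25% v/v non-ionic surfactant.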"}, "[13]": {"system": "field corn (Zea mays L., var. Dekalb 535, CORN)", "assay": "Post-emerge test, crop safety", "settings": "post-emerge, 14 days after application, rating scale 0-100", "procedure,_shortened": "as §2"}, "[14]": {"system": "upland rice (Oryza sp., var. Tebonnet, RICE)", "assay": "Post-emerge test, crop safety", "settings": "post-emerge, 14 days after application, rating scale 0-100", "procedure,_shortened": "as §2"}, "[15]": {"system": "sicklepod (Cassia obtusifolia, CASOB)", "assay": "Post-emerge test, greenhouse herbicide activity screening", "settings": "post-emerge, 14 days after application, rating scale 0-100", "procedure,_shortened": "(§3)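 Applied at 15–1000 g ai/ha from acetone in 187 l/ha spray volume. Post-emergence applications included 0.25% v/v non-ionic surfactant and reached plants sown 8–21 days before. Pre-emergence applications were incorporated by surface watering. Efficacy or crop damage was rated on a 0–100 scale after 14 days.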"}, "[16]": {"system": "common ragweed (Ambrosia artemisizfolia L., AMBEL)", "assay": "Post-emerge test, greenhouse herbicide activity screening", "settings": "post-emerge, 14 days after application, rating scale 0-100", "procedure,_shortened": "as §3"}, "[17]": {"system": "green foxtail (Setaria viridis, SETVI)", "assay": "Post-emerge test, greenhouse herbicide activity screening", "settings": "post-emerge, 14 days after application, rating scale 0-100", "procedure,_shortened": "as §3"}, "[18]": {"system": "johnsongrass (Sorghum halepense, SORHA)", "assay": "Post-emerge test, greenhouse herbicide activity screening", "settings": "post-emerge, 14 days after application, rating scale 0-100", "procedure,_shortened": "as §3"}, "[19]": {"system": "ivyleaf morningglory (Ipomoea hederacea, IPOHE)", "assay": "Post-emerge test, greenhouse herbicide activity screening", "settings": "post-emerge, 14 days after application, rating scale 0-100", "procedure,_shortened": "as §3"}, "[20]": {"system": "large crabgrass (Digitaria sanguinalis, DIGSA)", "assay": "Post-emerge test, greenhouse herbicide activity screening", "settings": "post-emerge, 14 days after application, rating scale 0-100", "procedure,_shortened": "as §3"}, "[21]": {"system": "barnyardgrass (Echinochloa crus-galli, ECHCG)", "assay": "Post-emerge test, greenhouse herbicide activity screening", "settings": "post-emerge, 14 days after application, rating scale 0-100", "procedure,_shortened": "as §3"}, "[22]": {"system": "lambsquarters (Chenopodium album, CHEAL)", "assay": "Post-emerge test, greenhouse herbicide activity screening", "settings": "post-emerge, 14 days after application, rating scale 0-100", "procedure,_shortened": "as §3"}, "[23]": {"system": "redroot pigweed (Amaranthus retroflexus, AMARE)", "assay": "Post-emerge test, greenhouse herbicide activity screening", "settings": "post-emerge, 14 days after application, rating scale 0-100", "procedure,_shortened": "as §3"}, "[24]": {"system": "velvetleaf (Abutilon theophrasti, ABUTH)", "assay": "Post-emerge test, greenhouse herbicide activity screening", "settings": "post-emerge, 14 days after application, rating scale 0-100", "procedure,_shortened": "as §3"}}, "data": [{"smiles": "COc1c(Cl)cc(F)c(-n2c(=O)cc(C(F)(F)F)n(C)c2=O)c1NC(=O)c1ccc(I)cc1", "note": "[2-66]", "values": [{"measurement": "Pre-emerge phytotoxicity rating (0-100), crop damage, CORN", "setting": "[1]; 63 g ai/ha", "value": 0}, {"measurement": "Pre-emerge phytotoxicity rating (0-100), crop damage, CORN", "setting": "[1]; 250 g ai/ha", "value": 15}, {"measurement": "Pre-emerge phytotoxicity rating (0-100), crop damage, RICE", "setting": "[2]; 63 g ai/ha", "value": 10}, {"measurement": "Pre-emerge phytotoxicity rating (0-100), crop damage, RICE", "setting": "[2]; 250 g ai/ha", "value": 60}, {"measurement": "Pre-emerge Herbicidal Activity, phytotoxicity rating (0-100), CASOB", "setting": "[3]; 63 g ai/ha", "value": 35}, {"measurement": "Pre-emerge Herbicidal Activity, phytotoxicity rating (0-100), CASOB", "setting": "[3]; 250 g ai/ha", "value": 90}, {"measurement": "Pre-emerge Herbicidal Activity, phytotoxicity rating (0-100), AMBEL", "setting": "[4]; 63 g ai/ha", "value": 0}, {"measurement": "Pre-emerge Herbicidal Activity, phytotoxicity rating (0-100), AMBEL", "setting": "[4]; 250 g ai/ha", "value": 60}, {"measurement": "Pre-emerge Herbicidal Activity, phytotoxicity rating (0-100), SETVI", "setting": "[5]; 63 g ai/ha", "value": 95}, {"measurement": "Pre-emerge Herbicidal Activity, phytotoxicity rating (0-100), SETVI", "setting": "[5]; 250 g ai/ha", "value": 100}, {"measurement": "Pre-emerge Herbicidal Activity, phytotoxicity rating (0-100), SORHA", "setting": "[6]; 63 g ai/ha", "value": 20}, {"measurement": "Pre-emerge Herbicidal Activity, phytotoxicity rating (0-100), SORHA", "setting": "[6]; 250 g ai/ha", "value": 95}, {"measurement": "Pre-emerge Herbicidal Activity, phytotoxicity rating (0-100), IPOHE", "setting": "[7]; 63 g ai/ha", "value": 40}, {"measurement": "Pre-emerge Herbicidal Activity, phytotoxicity rating (0-100), IPOHE", "setting": "[7]; 250 g ai/ha", "value": 80}, {"measurement": "Pre-emerge Herbicidal Activity, phytotoxicity rating (0-100), DIGSA", "setting": "[8]; 63 g ai/ha", "value": 60}, {"measurement": "Pre-emerge Herbicidal Activity, phytotoxicity rating (0-100), DIGSA", "setting": "[8]; 250 g ai/ha", "value": 99}, {"measurement": "Pre-emerge Herbicidal Activity, phytotoxicity rating (0-100), ECHCG", "setting": "[9]; 63 g ai/ha", "value": 0}, {"measurement": "Pre-emerge Herbicidal Activity, phytotoxicity rating (0-100), ECHCG", "setting": "[9]; 250 g ai/ha", "value": 60}, {"measurement": "Pre-emerge Herbicidal Activity, phytotoxicity rating (0-100), CHEAL", "setting": "[10]; 63 g ai/ha", "value": 100}, {"measurement": "Pre-emerge Herbicidal Activity, phytotoxicity rating (0-100), CHEAL", "setting": "[10]; 250 g ai/ha", "value": 100}, {"measurement": "Pre-emerge Herbicidal Activity, phytotoxicity rating (0-100), ABUTH", "setting": "[11]; 63 g ai/ha", "value": 100}, {"measurement": "Pre-emerge Herbicidal Activity, phytotoxicity rating (0-100), ABUTH", "setting": "[11]; 250 g ai/ha", "value": 100}, {"measurement": "Pre-emerge Herbicidal Activity, phytotoxicity rating (0-100), AMARE", "setting": "[12]; 63 g ai/ha", "value": 100}, {"measurement": "Pre-emerge Herbicidal Activity, phytotoxicity rating (0-100), AMARE", "setting": "[12]; 250 g ai/ha", "value": 100}, {"measurement": "phytotoxicity rating CORN", "setting": "[13]; 63 g ai/ha", "value": 15}, {"measurement": "phytotoxicity rating CORN", "setting": "[13]; 250 g ai/ha", "value": 70}, {"measurement": "phytotoxicity rating RICE", "setting": "[14]; 63 g ai/ha", "value": 50}, {"measurement": "phytotoxicity rating RICE", "setting": "[14]; 250 g ai/ha", "value": 90}, {"measurement": "phytotoxicity rating CASOB", "setting": "[15]; 63 g ai/ha", "value": 100}, {"measurement": "phytotoxicity rating CASOB", "setting": "[15]; 250 g ai/ha", "value": 70}, {"measurement": "phytotoxicity rating AMBEL", "setting": "[16]; 63 g ai/ha", "value": 100}, {"measurement": "phytotoxicity rating AMBEL", "setting": "[16]; 250 g ai/ha", "value": 75}, {"measurement": "phytotoxicity rating SETVI", "setting": "[17]; 63 g ai/ha", "value": 90}, {"measurement": "phytotoxicity rating SETVI", "setting": "[17]; 250 g ai/ha", "value": 80}, {"measurement": "phytotoxicity rating SORHA", "setting": "[18]; 63 g ai/ha", "value": 10}, {"measurement": "phytotoxicity rating SORHA", "setting": "[18]; 250 g ai/ha", "value": 50}, {"measurement": "phytotoxicity rating IPOHE", "setting": "[19]; 63 g ai/ha", "value": 100}, {"measurement": "phytotoxicity rating IPOHE", "setting": "[19]; 250 g ai/ha", "value": 90}, {"measurement": "phytotoxicity rating DIGSA", "setting": "[20]; 63 g ai/ha", "value": 10}, {"measurement": "phytotoxicity rating DIGSA", "setting": "[20]; 250 g ai/ha", "value": 20}, {"measurement": "phytotoxicity rating ECHCG", "setting": "[21]; 63 g ai/ha", "value": 70}, {"measurement": "phytotoxicity rating ECHCG", "setting": "[21]; 250 g ai/ha", "value": 50}, {"measurement": "phytotoxicity rating CHEAL", "setting": "[22]; 63 g ai/ha", "value": 100}, {"measurement": "phytotoxicity rating CHEAL", "setting": "[22]; 250 g ai/ha", "value": 100}, {"measurement": "phytotoxicity rating AMARE", "setting": "[23]; 63 g ai/ha", "value": 100}, {"measurement": "phytotoxicity rating AMARE", "setting": "[23]; 250 g ai/ha", "value": 100}, {"measurement": "phytotoxicity rating ABUTH", "setting": "[24]; 63 g ai/ha", "value": 100}, {"measurement": "phytotoxicity rating ABUTH", "setting": "[24]; 250 g ai/ha", "value": 100}]}]}
